Assay results taken from ChEMBL document CHEMBL5500396, “Discovery, Multiparametric Optimization, and Solid-State Driven Identification of CHF-6550, a Novel Soft Dual Pharmacology Muscarinic Antagonist and β2 Agonist (MABA) for the Inhaled Treatment of Respiratory Diseases” (J Med Chem, 2024).

How the values were obtained:
[1] = in vitro; conditions: rat, lung S9 fraction
Description: Stability in rat lung S9 fraction assessed as half-life at 1 uM incubated for 60 mins by LC-MS/MS analysis

[2] = Stability in guinea pig lung S9 fraction at 1 uM incubated for 60 mins by LC-MS/MS analysis
[3] = Drug concentration in male albino Dunkin-Hartley guinea pig lung at 50 nmol/kg, IT(Intratracheal) measured after 3 hrs; conditions: inhaled or intranasal
[4] = in vitro; conditions: rat, plasma
Description: Stability in rat plasma assessed as half-life at 5 uM incubated for 120 mins by LC-MS/MS analysis

[5] = Metabolic stability in rat hepatocytes assessed as parent compound remaining at 10 uM incubated for 60 mins by LC-MS/MS analysis
[6] = system: Trachea; assay: Inhibition of carbachol-induced smooth muscle contraction in male albino Dunkin-Hartley guinea pig trachea; conditions: Cavia porcellus, read-out: pIC50 (converted)
[7] = organism: Cavia porcellus; assay: animal or person; conditions: albino Dunkin-Hartley, 1 h, read-out: INH
Description: Inhibition of acetylcholine induced bronchoconstriction in male albino Dunkin-Hartley guinea pig model at 0.3 nmol/kg, IT(Intratracheal) preadministered with compound followed by acetylcholine addition at 5 to 30 mins in presence of ICI-118551 and measured 1 hrs post compound treatment relative to control

[8] = Drug concentration in male albino Dunkin-Hartley guinea pig lung at 50 nmol/kg, IT(Intratracheal) measured after 24 hrs; conditions: inhaled or intranasal
[9] = in vitro; conditions: human, hepatocytes
Description: Metabolic stability in human hepatocytes assessed as clearance measured per 10^6 cells at 1 uM incubated for 90 mins by LC-MS/MS analysis

[10] = biological target: Muscarinic acetylcholine receptor M3 (Homo sapiens, UniProt P20309)
Description: Displacement of Scopolamine methyl chloride,[N-methyl-3H] from human muscarinic M3 receptor assessed as inhibition constant incubated for 2 hrs by Microbeta scintillation counter

[11] = in vitro; conditions: guinea pig, lung S9 fraction
Description: Stability in guinea pig lung S9 fraction assessed as half-life at 1 uM incubated for 60 mins by LC-MS/MS analysis

[12] = in vitro; conditions: guinea pig, hepatocytes
Description: Metabolic stability in guinea pig hepatocytes assessed as clearance measured per 10^6 cells at 1 uM incubated for 90 mins by LC-MS/MS analysis

[13] = biological target: Muscarinic acetylcholine receptor M3 (Cavia porcellus, UniProt Q8VH26); assay: Antagonist activity at M3 receptor in male albino Dunkin-Hartley guinea pig trachea assessed as inhibition of carbachol-induced smooth muscle contraction in presence of propranolol
[14] = Protein binding in human plasma at 5 uM incubated for 4 hrs by LC-MS/MS analysis
[15] = system: Cavia porcellus; assay: Inhibition of acetylcholine induced bronchoconstriction in male albino Dunkin-Hartley guinea pig model at 0.3 nmol/kg, IT(Intratracheal) preadministered with compound followed by acetylcholine addition at 5 to 30 mins and measured 1 hrs post compound treatment relative to control; conditions: read-out: INH
[16] = organism: Cavia porcellus; assay: animal or person; conditions: albino Dunkin-Hartley, 1 h, read-out: INH; remark: listed apart in the source
Description: Inhibition of acetylcholine induced bronchoconstriction in male albino Dunkin-Hartley guinea pig model at 1 nmol/kg, IT(Intratracheal) preadministered with compound followed by acetylcholine addition at 5 to 30 mins in presence of ICI-118551 and measured 1 hrs post compound treatment relative to control

[17] = in vitro; conditions: rat, hepatocytes
Description: Metabolic stability in rat hepatocytes assessed as clearance measured per 10^6 cells at 1 uM incubated for 90 mins by LC-MS/MS analysis

[18] = in vitro; conditions: guinea pig, plasma
Description: Stability in guinea pig plasma assessed as half-life at 5 uM incubated for 120 mins by LC-MS/MS analysis

[19] = Stability in rat plasma assessed as parent compound remaining at 10 uM incubated for 60 mins by LC-MS/MS analysis
[20] = Stability in human plasma assessed as parent compound remaining at 10 uM incubated for 60 mins by LC-MS/MS analysis
[21] = in vitro; conditions: human, plasma
Description: Stability in human plasma assessed as half-life at 5 uM incubated for 120 mins by LC-MS/MS analysis

[22] = system: Cavia porcellus; assay: Inhibition of histamine induced bronchoconstriction in male albino Dunkin-Hartley guinea pig model at 0.3 nmol/kg, IT(Intratracheal) preadministered with compound followed by histamine addition at 5 to 30 mins and measured 1 hrs post compound treatment relative to control; conditions: read-out: INH
[23] = system: Cavia porcellus; assay: Inhibition of histamine induced bronchoconstriction in male albino Dunkin-Hartley guinea pig model at 1 nmol/kg, IT(Intratracheal) preadministered with compound followed by histamine addition at 5 to 30 mins and measured 24 hrs post compound treatment relative to control; conditions: read-out: INH
[24] = system: Cavia porcellus; assay: Inhibition of acetylcholine induced bronchoconstriction in male albino Dunkin-Hartley guinea pig model at 1 nmol/kg, IT(Intratracheal) preadministered with compound followed by acetylcholine addition at 5 to 30 mins and measured 1 hrs post compound treatment relative to control; conditions: read-out: INH
[25] = Metabolic stability in human hepatocytes assessed as parent compound remaining at 10 uM incubated for 60 mins by LC-MS/MS analysis
[26] = system: Cavia porcellus; assay: Inhibition of histamine induced bronchoconstriction in male albino Dunkin-Hartley guinea pig model at 1 nmol/kg, IT(Intratracheal) preadministered with compound followed by histamine addition at 5 to 30 mins and measured 1 hrs post compound treatment relative to control; conditions: read-out: INH
[27] = Drug concentration in male albino Dunkin-Hartley guinea pig lung at 50 nmol/kg, IT(Intratracheal) measured after 0.083 hrs; conditions: inhaled or intranasal
[28] = biological target: Beta-2 adrenergic receptor (Homo sapiens, UniProt P07550)
Description: Displacement of [125I]-Cyanopindolol from human beta2 adrenoceptor assessed as inhibition constant incubated for 1 hrs by Microbeta scintillation counter

[29] = system: Cavia porcellus; assay: Inhibition of acetylcholine induced bronchoconstriction in male albino Dunkin-Hartley guinea pig model at 1 nmol/kg, IT(Intratracheal) preadministered with compound followed by acetylcholine addition at 5 to 30 mins and measured 24 hrs post compound treatment relative to control; conditions: read-out: INH
[30] = in vitro; conditions: human, lung S9 fraction
Description: Stability in human lung S9 fraction assessed as half-life at 1 uM incubated for 60 mins by LC-MS/MS analysis

[31] = organism: Cavia porcellus; assay: animal or person; conditions: albino Dunkin-Hartley, 24 h, read-out: INH
Description: Inhibition of acetylcholine induced bronchoconstriction in male albino Dunkin-Hartley guinea pig model at 1 nmol/kg, IT(Intratracheal) preadministered with compound followed by acetylcholine addition at 5 to 30 mins in presence of ICI-118551 and measured 24 hrs post compound treatment relative to control

[32] = biological target: Beta-2 adrenergic receptor (Cavia porcellus, UniProt Q8K4Z4); assay: Agonist activity at beta2 adrenoceptor in male albino Dunkin-Hartley guinea pig trachea assessed as inhibition of histamine induced smooth muscle contraction
[33] = Protein binding in guinea pig plasma at 5 uM incubated for 4 hrs by LC-MS/MS analysis
[34] = organism: Cavia porcellus; assay: animal or person; conditions: albino Dunkin-Hartley, 16 h, read-out: INH
Description: Inhibition of acetylcholine induced bronchoconstriction in male albino Dunkin-Hartley guinea pig model at 3 nmol/kg, IT(Intratracheal) preadministered with compound followed by acetylcholine addition at 5 to 30 mins in presence of ICI-118551 and measured 16 hrs post compound treatment relative to control

[35] = system: Cavia porcellus; assay: Inhibition of histamine induced bronchoconstriction in male albino Dunkin-Hartley guinea pig model at 3 nmol/kg, IT(Intratracheal) preadministered with compound followed by histamine addition at 5 to 30 mins and measured 16 hrs post compound treatment relative to control; conditions: read-out: INH
[36] = system: Cavia porcellus; assay: Inhibition of acetylcholine induced bronchoconstriction in male albino Dunkin-Hartley guinea pig model at 3 nmol/kg, IT(Intratracheal) preadministered with compound followed by acetylcholine addition at 5 to 30 mins and measured 1 hrs post compound treatment relative to control; conditions: read-out: INH
[37] = organism: Cavia porcellus; assay: animal or person; conditions: albino Dunkin-Hartley, 1 h, read-out: INH; remark: listed apart in the source
Description: Inhibition of acetylcholine induced bronchoconstriction in male albino Dunkin-Hartley guinea pig model at 3 nmol/kg, IT(Intratracheal) preadministered with compound followed by acetylcholine addition at 5 to 30 mins in presence of ICI-118551 and measured 1 hrs post compound treatment relative to control

[38] = system: Cavia porcellus; assay: Inhibition of histamine induced bronchoconstriction in male albino Dunkin-Hartley guinea pig model at 3 nmol/kg, IT(Intratracheal) preadministered with compound followed by histamine addition at 5 to 30 mins and measured 1 hrs post compound treatment relative to control; conditions: read-out: INH
[39] = system: Cavia porcellus; assay: Inhibition of acetylcholine induced bronchoconstriction in male albino Dunkin-Hartley guinea pig model at 3 nmol/kg, IT(Intratracheal) preadministered with compound followed by acetylcholine addition at 5 to 30 mins and measured 16 hrs post compound treatment relative to control; conditions: read-out: INH
[40] = system: Cavia porcellus; assay: Inhibition of acetylcholine induced bronchoconstriction in male albino Dunkin-Hartley guinea pig model at 3 nmol/kg, IT(Intratracheal) preadministered with compound followed by acetylcholine addition at 5 to 30 mins and measured 24 hrs post compound treatment relative to control; conditions: read-out: INH
[41] = Protein binding in rat plasma at 5 uM incubated for 4 hrs by LC-MS/MS analysis

Sequence of Beta-2 adrenergic receptor (Homo sapiens, UniProt P07550) (P07550 whole entry): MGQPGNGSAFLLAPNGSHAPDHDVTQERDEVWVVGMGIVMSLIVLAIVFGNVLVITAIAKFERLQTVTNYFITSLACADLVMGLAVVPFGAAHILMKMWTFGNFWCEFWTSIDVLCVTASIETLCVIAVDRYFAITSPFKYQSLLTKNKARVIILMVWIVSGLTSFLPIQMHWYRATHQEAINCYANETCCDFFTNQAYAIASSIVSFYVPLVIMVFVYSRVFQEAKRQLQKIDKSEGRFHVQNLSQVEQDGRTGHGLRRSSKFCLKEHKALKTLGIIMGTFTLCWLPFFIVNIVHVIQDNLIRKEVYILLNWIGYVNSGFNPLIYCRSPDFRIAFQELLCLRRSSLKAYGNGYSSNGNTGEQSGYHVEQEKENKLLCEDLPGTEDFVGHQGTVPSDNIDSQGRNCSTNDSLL
Sequence of Muscarinic acetylcholine receptor M3 (Cavia porcellus, UniProt Q8VH26) (Q8VH26 whole entry): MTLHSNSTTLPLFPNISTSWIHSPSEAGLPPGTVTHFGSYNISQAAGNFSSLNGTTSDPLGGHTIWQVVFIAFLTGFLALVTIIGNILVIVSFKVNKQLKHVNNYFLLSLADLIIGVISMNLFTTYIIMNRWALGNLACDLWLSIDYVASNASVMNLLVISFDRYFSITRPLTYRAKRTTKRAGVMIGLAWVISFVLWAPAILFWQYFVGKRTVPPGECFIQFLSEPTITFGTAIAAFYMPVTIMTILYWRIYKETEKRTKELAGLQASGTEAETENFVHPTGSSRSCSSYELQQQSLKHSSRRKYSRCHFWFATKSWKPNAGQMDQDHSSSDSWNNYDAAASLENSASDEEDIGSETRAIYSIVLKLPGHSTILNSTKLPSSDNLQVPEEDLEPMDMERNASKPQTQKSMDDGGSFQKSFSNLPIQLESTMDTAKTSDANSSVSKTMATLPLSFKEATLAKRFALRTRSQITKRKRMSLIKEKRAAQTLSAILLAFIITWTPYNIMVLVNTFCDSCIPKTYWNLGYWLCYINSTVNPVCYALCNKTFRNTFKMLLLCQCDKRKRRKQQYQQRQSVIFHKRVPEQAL
Sequence of Muscarinic acetylcholine receptor M3 (Homo sapiens, UniProt P20309) (P20309 whole entry): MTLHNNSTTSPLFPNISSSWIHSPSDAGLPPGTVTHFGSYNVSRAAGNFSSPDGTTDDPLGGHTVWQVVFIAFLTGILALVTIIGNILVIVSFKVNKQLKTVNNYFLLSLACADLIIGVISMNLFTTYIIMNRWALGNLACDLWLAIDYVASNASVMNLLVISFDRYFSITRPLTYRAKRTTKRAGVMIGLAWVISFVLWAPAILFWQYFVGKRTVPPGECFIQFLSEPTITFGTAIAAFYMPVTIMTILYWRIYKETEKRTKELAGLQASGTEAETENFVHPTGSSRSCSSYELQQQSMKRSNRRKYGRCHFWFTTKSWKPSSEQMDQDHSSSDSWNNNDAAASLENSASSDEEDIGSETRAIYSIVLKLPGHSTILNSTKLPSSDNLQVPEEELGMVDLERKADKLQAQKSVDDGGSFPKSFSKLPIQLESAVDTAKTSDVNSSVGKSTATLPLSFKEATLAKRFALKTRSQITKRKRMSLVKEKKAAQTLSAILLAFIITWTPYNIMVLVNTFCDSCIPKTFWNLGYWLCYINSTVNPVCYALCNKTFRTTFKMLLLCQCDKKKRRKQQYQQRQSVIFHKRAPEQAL
Sequence of Beta-2 adrenergic receptor (Cavia porcellus, UniProt Q8K4Z4) (Q8K4Z4 whole entry): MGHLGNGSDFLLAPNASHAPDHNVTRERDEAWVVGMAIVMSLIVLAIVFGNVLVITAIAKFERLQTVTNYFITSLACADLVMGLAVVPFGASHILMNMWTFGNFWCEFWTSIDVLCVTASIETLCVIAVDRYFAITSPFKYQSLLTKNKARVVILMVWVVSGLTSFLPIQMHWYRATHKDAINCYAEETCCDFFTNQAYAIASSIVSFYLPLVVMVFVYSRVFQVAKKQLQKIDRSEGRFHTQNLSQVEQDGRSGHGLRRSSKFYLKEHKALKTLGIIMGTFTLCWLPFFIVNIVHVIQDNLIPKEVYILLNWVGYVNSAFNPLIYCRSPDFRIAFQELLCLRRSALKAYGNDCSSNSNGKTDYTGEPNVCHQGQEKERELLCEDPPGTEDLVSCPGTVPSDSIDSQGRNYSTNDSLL

Row | Structure (SMILES) | half-life at 1 h, 1 µM [1] | remaining at 1 h, 1 µM [2] | half-life at 2 h, 5 µM [4] | IC50 [6] | hepatocyte CLint at 1.5 h, 1 µM [9] | Ki [10] | half-life at 1 h, 1 µM [11] | hepatocyte CLint at 1.5 h, 1 µM [12] | IC50 [13] | fraction unbound at 4 h, 5 µM [14] | hepatocyte CLint at 1.5 h, 1 µM [17] | half-life at 2 h, 5 µM [18] | half-life at 2 h, 5 µM [21] | inhibition in vivo at 0.001 µmol/kg [24] | Ki [28] | half-life at 1 h, 1 µM [30] | IC50 [32] | inhibition in vivo at 0.003 µmol/kg [36] | inhibition in vivo at 0.003 µmol/kg [37] | inhibition in vivo at 0.003 µmol/kg [38] | other results
1 | O=C(NCCCOc1cccc([C@](O)(C(=O)OCC2CCN(Cc3ccccc3)CC2)c2ccccc2)c1)c1ccc(CNC[C@H](O)c2ccc(O)c3[nH]c(=O)ccc23)cc1 | 142 min | 14% | 27 min | 0.501 nM | 25 µL/min/1e6 cells | 0.398 nM | 21 min | 316 µL/min/1e6 cells | 0.398 nM | 0.01 | 30 µL/min/1e6 cells | < 5 min | > 150 min | 94% | 0.1 nM | 193 min | 0.316 nM | – | – | – | concentration at 3 h [3]: 1160 ng/g; remaining at 1 h, 10 µM [5]: 70%; inhibition in vivo at 0.0003 µmol/kg [7]: 23%; concentration at 24 h [8]: 1170 ng/g; inhibition in vivo at 0.0003 µmol/kg [15]: 49%; inhibition in vivo at 0.001 µmol/kg [16]: 87%; remaining at 1 h, 10 µM [19]: 67%; remaining at 1 h, 10 µM [20]: > 99%; inhibition in vivo at 0.0003 µmol/kg [22]: 34%; inhibition in vivo at 0.001 µmol/kg [23]: 5%; remaining at 1 h, 10 µM [25]: 91%; inhibition in vivo at 0.001 µmol/kg [26]: 66%; concentration at 0.083 h [27]: 1270 ng/g; inhibition in vivo at 0.001 µmol/kg [29]: 95%; inhibition in vivo at 0.001 µmol/kg [31]: 79%
2 | O=C(NCCCOc1cccc([C@@](O)(C(=O)OCC2CCN(Cc3ccccc3)CC2)c2ccccc2)c1)c1ccc(CNCC(O)c2ccc(O)c3[nH]c(=O)ccc23)cc1 (stereo not given in full) | 271 min | 91.9% | 11 min | 0.251 nM | 18 µL/min/1e6 cells | 10 nM | 280 min | 41 µL/min/1e6 cells | 10 nM | 0.01 | 33 µL/min/1e6 cells | > 150 min | > 150 min | – | 0.0501 nM | 138 min | 0.0501 nM | 93% | 70% | 86% | fraction unbound at 4 h, 5 µM [33]: 0.01; inhibition in vivo at 0.003 µmol/kg [34]: 39%; inhibition in vivo at 0.003 µmol/kg [35]: 39%; inhibition in vivo at 0.003 µmol/kg [39]: 56%
3 | O=C(c1ccc(OCc2ccc(CNC[C@H](O)c3ccc(O)c4[nH]c(=O)ccc34)cc2)cc1)N1CCC(C(=O)OC2CN3CCC2CC3)(c2ccccc2)CC1 (single isomer, unassigned) | 217 min | – | > 150 min | 1 nM | 15 µL/min/1e6 cells | 0.251 nM | 216 min | – | 2.51 nM | 0.02 | 27 µL/min/1e6 cells | 109 min | > 150 min | 60% | 0.2 nM | 280 min | 0.501 nM | 93% | 90% | 21% | inhibition in vivo at 0.003 µmol/kg [40]: 68%; fraction unbound at 4 h, 5 µM [41]: 0.15
